For data set [1] the following is noted: human, in vivo. The procedure:
A two-part clinical study was conducted for alopecia areata (AA) patients. AA is an autoimmune disease leading to hair loss on the scalp, face, and in more severe cases, other body areas. The mechanisms leading to AA are multifactorial, including an autoimmune response that results in the loss of hair follicle immune privilege. The patient will be given treatment based on disease severity (>50% involvement—JAK inhibitors; <50% involvement—corticosteroids).
In Part 1, single ascending doses of a single formulation of AQST-108 were given. […] The 1.0% AQST-108 strength was down-selected to Part 2.
In Part 2, a single dose of 1 of 3 formulations of 1.0% of AQST-108 was given.

Details of data set [2]: species or system Sinclair Nanopigs. The note with it: in vivo. The procedure: A study was conducted to evaluate the systemic pharmacokinetic characteristics of Dipivefrin Topical Gel when administered once by topical application to intact, abraded, and wounded skin of Sinclair Nanopigs™. The study design was as follows. Animals were food fasted for at least 8 hours. Animals were monitored until fully recovered. Anesthesia procedures were documented and retained in the study data. The dose formulations were administered to appropriate animals by topical application on the dorsal surface (Dose Site #1) once on Day 1. The dose site was and/or shaved and marked at least one day prior to Day 1. At least the four corners of the dose sites will be marked with indelible ink based on the appropriate dose area. At least the four corners of the tape stripping area were marked with indelible ink for Group 2 and 3 animals. The site for Group 2 and 3 animals was gently abraded via tape stripping (conducted 50 times). All animals will have a uniform topical application using a gloved hand and/or spatula to rub the entire dose amount throughout the total dose area (for 1 minute). Topical application to the dose area for Group 4 animals will include application of the dose amount over the created wounds. If an animal is observed to have test material remaining following the application time, the observation will be documented. Dose formulations will be allowed to equilibrate at ambient temperature for at least 15 minutes prior to and continuously throughout dose administration Prior to dermal (topical) application on Day 1, the dose site for Group 1 to 3 animals were wiped clean with water-moistened gauze or paper towels then wiped dry with dry gauze or paper towels. Following washing and drying, […]. On Day 1, Group 4 animals: The animal backs were prepared for wound creation by performing a surgical scrub. Two (2) wounds were created on the dorsal surface of each Group 4 animal within a 7×7 cm area using an 8 mm punch biopsy. Steps were taken to ensure the area designated for wound creation is within the total dose area (8×8 cm). […]

The nature of data set [3]: In vitro permeation and flux of dipivefrin topical gel through CelluSep. It counts as in vitro ADME. The settings on record: 5.0% dipivefrin (w/w) topical gel. The procedure:
Both in vitro and ex vivo permeation was measured for the following formulation. […] Rapid release from the topical gel matrix was observed. Referring to FIG. 4A, the amount permeated (in ug) was measured as a function of time (in minutes). […] The flux (ug/cm^2*min) was measured as a function of time (minutes).

Data set [4] is described as follows: Ex vivo permeation and flux of epinephrine prodrug topical gels through porcine ear tissue. The note with it: topical gel, 2.5% to 10% API loading, 24 hours. It is filed as in vitro ADME. The procedure:
Both in vitro and ex vivo permeation was measured for the following formulation. […]
Exemplary formulations were evaluated including Formulations 1-3, with API loading from 2.5-10% w/w.
(§1) The claimed topical compositions were tested for permeation using both porcine ear and buccal tissue.
(§2) The tested tissues were Porcine Ear vs. Buccal Tissue through 24 hours.

For data set [5] the following is noted: male, Wistar Han, rat, in vivo. The procedure: A study was conducted to evaluate the pharmacokinetics of the claimed composition in a rat model. The purpose of this study was to enable selection of dosing regimen to be used on Passive Cutaneous Anaphylaxis (PCA) model in mammalian subjects. In this study, 15 male rats were studied to model the effects of the claimed composition on passive cutaneous anaphylaxis with a topical route of exposure. […] The Wistar Han rat was chosen as the animal model for this study as it is an appropriate model to study the effects of drug candidates on passive cutaneous anaphylaxis, based on available literature.
In this study, the pharmaceutical composition was applied on the dorsal side of both ears for groups 2-5 and only on the left ear of group 1 using a gloved finger until absorbed. The topical gel was applied as an even layer with no rubbing required.
The dark gray bar represents concentration in ng/g after 30 minutes of exposure for both 1% (low dose) and 2.5% (high dose) compositions. The light gray bar represents concentration in ng/g after 60 minutes of exposure for both 1% (low dose) and 2.5% (high dose) compositions.

Another data set has as its system NK cells. In words: NK activation assay, CD25+CD69+ NK cells by flow cytometry. It is filed as cell-based, human. The settings on record: for % inactivation relative to vehicle: human NK % CD25+CD69+ cells. The procedure:
IC50 is a measurement of how much of a drug is needed to inhibit a biological process by half.
Peripheral blood mononuclear cells (PBMC) were isolated over a density gradient from six donor buffy coats and CD56+NK were separated using magnetic selection. Purity of sorted NIK cells was assessed by flow cytometry using CD56 as a marker of NK cells.
Following magnetic isolation, NK cells were seeded at 5×10^5 NK cells per well in a 48 well plate alongside NK activation beads (prepared as per manufacturer's protocol) at a 1:1 bead to cell ratio, IL-2 (final concentration 500 IU/ml) and either prodrug/epinephrine at 5 different doses (see section 3.6 below for further details), cortisol/dexamethasone (positive controls) or vehicle (media only). NK cells were cultured with the NK activation beads for two days at 37° C. in the presence of 5% CO2. After two days, supernatants were collected from each condition for future TR-FRET analysis (AQV-24-001_AM-1 only, see below) and the remaining cells from each condition were assessed for expression of surface markers CD25, CD69 and for cell viability using eBioscience™ Fixable Viability Dye. Samples were then treated with eBioscience Intracellular Fixation & Permeabilization Buffer Set to allow staining of intracellular granzyme B. Marker expression was determined by flow cytometry and appropriate “Fluorescence-Minus-One controls” controls were used. Flow cytometry data was analysed using FlowJo analysis software and data was graphed using Graph Pad Prism.
The study was performed in: 3 donors Each experimental condition was tested in: singlicate. For Flow cytometry, viability was measured and cells were phenotyped for NK cell activation (CD25, CD69, granzyme B). Raw and analysed data are provided.
Each experimental condition was tested in: singlicate. For Flow cytometry, viability was measured and cells were phenotyped for NK cell activation (CD25, CD69, granzyme B). Raw and analysed data are provided. Supernatants were harvested in triplicate per condition and stored until further analysis of IFNγ content by TR-FRET. Data was analysed and graphed. Raw and analysed data are provided. […]
On the technique in general: A flow cytometer gives signals particle by particle.

Data set [6] in a line: Ex vivo permeation and flux of dipivefrin topical gel through buccal tissue. The note with it: through 24 hours. It counts as in vitro ADME, porcine. How it is done:
as §1, §2

Data set [7] can be described thus: Non-clinical pharmacokinetic study of 2.5% topical gel in minipigs. It counts as in vivo. How it is done: A non-clinical pharmacokinetic study was also conducted in minipigs. In this study, a 2.5% topical gel was applied at 30 mg/cm2 in 7, 10 and 12% body surface area (BSA) coverage respectively, and data was collected over 6 hours.
The subject of another data set is Granzyme B. The note with it: donors 4-6, from 100 μg/ml, versus vehicle control.
For data set [8] the following is noted: cited from earlier work.

Description for Granzyme B: NK cells were cultured with the NK activation beads for two days at 37° C. in the presence of 5% CO2. […] Samples were then treated with eBioscience Intracellular Fixation & Permeabilization Buffer Set to allow staining of intracellular granzyme B. Marker expression was determined by flow cytometry and appropriate “Fluorescence-Minus-One controls” controls were used. Flow cytometry data was analysed using FlowJo analysis software and data was graphed using Graph Pad Prism.
CD56+ cells were isolated from three donor buffy coats by magnetic separation. […] Next, the effect of compound addition at different timepoints and doses, following either optimal or suboptimal NK activation was determined by measuring expression of the activation markers CD25, CD69 and Granzyme B on NK cells. […] Treatment was administered at 0, 6, 24 and 30 hours. The controls were 200 nM Cortisol and 500 nM Deuruxolitinib (Jak inhibitor).

In the case of `CNC[C@H](O)c1ccc(OC(=O)C(C)(C)C)c(OC(=O)C(C)(C)C)c1` [dipivefrin], in [1], the AQST-108 plasma concentrations entry is “No AQST-108 plasma concentrations”, the “serious adverse events (SAE) or topical adverse events (AE)” value was “No serious adverse events” and the systemic epinephrine concentrations entry is given as “within normal physiologic range”. The “PK parameters in plasma, intact skin versus abraded skin” value in data set [2] is “no significant difference”. Moreover, the “in vitro release from the topical gel matrix (permeation and flux)” value in [3] is “Rapid release”. For the same compound, the “permeation as a function of API loading” value in [4] is listed as “Dose proportional increases in permeation”. Also, the “duration of epinephrine exposure” value in data set [5] is greater than 1 h. Also, the “% inactivation relative to vehicle” value with NK cells (500 nM) came to 67%. For the same compound, the “% inactivation relative to vehicle” value in the data set with NK cells (1000 nM) is listed as 68%. The “% inactivation relative to vehicle” value in the data set with NK cells (2500 nM) was 66%. For the same compound, the “suppression of activation of NK cells, Epinephrine and Dipivefrin combined for analysis” value with NK cells (range of concentrations, exceeding IC50 at 70, 140 and 280 nM) was “effective suppression”. The “modulation of NK cell activity” value with NK cells (range of concentrations, exceeding IC50 at 140 and 280 nM) is reported as “effectively deactivated NK cells”. Also, in data set [6], the “permeation through buccal tissue versus porcine ear” value is given as “reduced dipivefrin permeation”. For the same compound, in data set [7] (30 mg/cm2, 7, 10 and 12% BSA), the “duration of high exposure in dermis and epidermis” value is recorded as “more than 6 hours”. For the same compound, the systemic exposure entry in data set [7] (high body surface area coverage) is listed as “no systemic exposure”.

Consider dipivefrin, for which the “Median Fluorescence Intensity (MFI) of Granzyme B” value in the data set on Granzyme B is recorded as “decreasing to some extent”. The “reduction of NK cell activation as compared to control” value in the data set with NK cells (doses up to 5 ng/mL, comparable to 20 nM Cortisol) is “about 12%”. The “reduction in CD25+CD69+ NK cells compared to vehicle control” value with NK cells (higher doses, donors 4-6) is 5-12%; with NK cells (lower doses, donors 2-3), 7-12%.

`CCOCCOCCO` [Diethylene glycol monoethyl ether]: the “Log P (octanol:water)” value in [8] is listed as −0.43.

The values above are taken from patent publication US20250281392A1, “TOPICAL DELIVERY OF EPINEPHRINE AND PRODRUG COMPOSITIONS” (Aquestive Therapeutics, Inc., priority 2024, published 2025).
